Results taken from US12065436B2, “Cardiac sarcomere inhibitors” (Cytokinetics, Inc., priority 2018, dated 2024).
Where two headings read alike, the source gives them in different places.

Tests used:
[1] = test system: rat cardiac contractility (left ventricle fractional shortening); experiment: Echocardiography of acute effect on rat cardiac contractility, continuous IV infusion; assay type: in vivo, Sprague Dawley rats; settings: Rattus norvegicus, plasma concentration at which fractional shortening is 50% of pre-dose baseline, estimated, read-out: IC50 (Mean ± S.D.)
Description: (§1) Assessment of in vivo cardiac function by echocardiography was performed in male Sprague Dawley rats under isoflurane (1-3%) anesthesia. 2-D M-mode images of the left ventricle were acquired in the parasternal long-axis view before, during, and after administration of compounds by continuous IV infusion or oral gavage. In vivo fractional shortening was determined by M-mode image analysis with the following calculation: ((End diastolic diameter−end systolic diameter)/end diastolic diameter×100). For continuous IV infusion experiments, three pre-dose baseline M-mode images were taken at 1 minute intervals prior to infusion of compound. Compounds were formulated in 50% Propylene Glycol (PG): 16% Captisol: 10% dimethylacetamide (DMA) and delivered via a jugular vein catheter at the rate of 1 mL/kg/h. During infusion, M-mode images were taken at 5 minute intervals. The infusion stopped when fractional shortening reached up to a 60% reduction from baseline. Blood samples were taken to determine the plasma concentration of the compounds. Data was reported as an estimated IC50 value, which is the concentration at which fractional shortening is 50% of the pre-dose baseline contractility.

[2] = test system: rat cardiac contractility (left ventricle fractional shortening); experiment: Echocardiography of acute effect on rat cardiac contractility, oral gavage; assay type: in vivo, Sprague Dawley rats; settings: for inhibition in vivo at 6 mg/kg / IC50 / inhibition in vivo at 10 mg/kg / inhibition in vivo at 2 mg/kg / inhibition in vivo at 4.5 mg/kg: Rattus norvegicus; for inhibition in vivo at 6 mg/kg / inhibition in vivo at 10 mg/kg / inhibition in vivo at 2 mg/kg / inhibition in vivo at 4.5 mg/kg: oral gavage; for IC50 / IC10: oral dosing, estimated; for IC50: plasma concentration at which fractional shortening is 50% of pre-dose baseline; for IC10: plasma concentration at which
Description: as §1
For oral dosing studies, three pre-dose baseline M-Mode images were taken at 1 minute intervals prior to compound administration. Compounds were formulated in a 0.5% hydroxypropyl methylcellulose 2910 (HPMC 2910): 0.1% Tween 80 suspension and delivered as a single dose (5 mL/kg) by oral gavage. Rats were lightly anesthetized for M-Mode echocardiography measurements at select time points over a 24 hour period. Different dose levels were evaluated for each compound. The compound effect on cardiac fractional shortening at the highest dose evaluated is presented in Table D as a percent reduction of baseline fractional shortening (=100%).
Concurrent with echocardiography measurements, blood samples were taken to determine the corresponding compound plasma concentration.

[3] = target: bovine cardiac myofibrils (full-length cardiac myosin ATPase in the native sarcomere) (Bos taurus (Bovine), UniProt Q9BE39); experiment: Skinned bovine cardiac myofibril ATPase assay (PK/LDH-coupled); assay type: biochemical; settings: Ca2+ activating to 75% of maximal rate; for CDMF75 IC15: concentration giving 15% inhibition; for IC50: read-out: CDMF75 IC50
In short: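 Inhibition of steady-state ATPase read at 340 nm through a PK/LDH-coupled NADH system (0.5 mM NADH, 1.5 mM PEP). Detergent-skinned bovine cardiac myofibrils, 1 mg/mL, were tested at pH 6.8 in PIPES/MgCl2 with 50 μM ATP and calcium adjusted to give pCa50 or pCa75 activation.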

[4] = test system: adult cardiac ventricular rat myocytes; experiment: Adult ventricular myocyte contractility (fractional shortening); assay type: cell-based; settings: 5 min, 5 min perfusion, read-out: % FS (% reduction from baseline) ± SEM; for inhibition at 10 µM: 10 μM compound
Description: Adult male Sprague-Dawley rats were anesthetized and the hearts were quickly excised, rinsed and the ascending aorta was cannulated. Continuous retrograde perfusion was initiated on the hearts at a perfusion pressure of 60 cm H2O. Hearts were first perfused with a nominally Ca^2+-free modified Krebs solution of the following composition: 113 mM NaCl, 4.7 mM KCl, 0.6 mM KH2PO4, 0.6 mM Na2HPO4, 1.2 mM MgSO4, 12 mM NaHCO3, 10 mM KHCO3, 30 mM taurine, 5.5 mM glucose and 10 mM Hepes (all Sigma). This medium is not recirculated and is continually aerated with a 95% O2/5% CO2 mixture. After approximately 3 minutes the heart was perfused with a modified Krebs buffer supplemented with collagenase (Worthington) and 12.5 μM final calcium concentration. The heart was removed from the cannulae after the heart appeared blanched and soft in appearance. The atria and vessels were removed and the ventricles were gently dissected into smaller pieces with forceps. The tissue was homogenized by repeated pipette trituration and the collagenase reaction was stopped by 10% bovine calf serum (BCS), sedimentation and resuspension in perfusion buffer containing 5% BCS and 12.5 uM CaCl2). Myocytes were made calcium tolerant by stepwise addition of a CaCl2) solution to a final concentration of 1.2 mM. Cells were then washed and resuspended in Tyrode's buffer (137 mM NaCl, 3.7 mM KCl, 0.5 mM MgCl, 11 mM glucose, 4 mM Hepes, and 1.2 mM CaCl2), pH 7.4). Cells were kept for 60 min at 37° C. prior to initiating experiments and used within 5 hrs of isolation. […] Additionally, only cells whose basal contractility was between 3 and 8% were used in subsequent experiments with compounds.
Aliquots of myocytes in Tyrode's buffer were placed in perfusion chambers (series 20 RC-27NE; Warner Instruments) complete with heating platforms. Myocytes were allowed to attach, the chambers were heated to 37° C., and the cells were perfused with 37° C. Tyrode's buffer. Myocytes were field stimulated at 1 Hz in with platinum electrodes (20% above threshold). Only cells that had clear striations and were quiescent prior to pacing were used for contractility experiments. To determine basal contractility, myocytes were imaged through a 40× objective. […] Once cell contraction was stable over time, test compounds (0.01-15 μM) were perfused into the chambers on the myocytes for 5 minutes. Contractility of the myocytes and contraction and relaxation velocities were then recorded using edge detection.
Five or more individual myocytes were tested per compound from two or more different myocyte preparations. For each cell, twenty or more contractility transients at basal (defined as 1 min prior to compound infusion) and after compound addition (defined as 5 min after starting compound perfusion), were averaged and compared. These average transients were analyzed using the IonWizard software (IonOptix) to determine changes in diastolic length and fractional shortening. Fractional shortening was calculated as: ((resting length−length at peak contraction) divided by the resting length). The percent change in fractional shortening from baseline was calculated as: ((post-dose fractional shortening/basal fractional shortening)*100). The percent reduction in fractional shortening from baseline was calculated as: (100−percent change in fractional shortening from baseline). Maximum contraction and relaxation velocities (um/sec) was also determined. Results from individual cells are averaged and the SEM calculated.

[5] = 1 h, 1-2 h post dose, read-out: FS (% reduction from baseline) at 1-2 h post dose (Mean ± S.D.)
[6] = 4 h post dose, read-out: FS (% reduction from baseline) at 4 h post dose (Mean ± S.D.)

Chain of bovine cardiac myofibrils (full-length cardiac myosin ATPase in the native sarcomere) (Q9BE39 whole entry): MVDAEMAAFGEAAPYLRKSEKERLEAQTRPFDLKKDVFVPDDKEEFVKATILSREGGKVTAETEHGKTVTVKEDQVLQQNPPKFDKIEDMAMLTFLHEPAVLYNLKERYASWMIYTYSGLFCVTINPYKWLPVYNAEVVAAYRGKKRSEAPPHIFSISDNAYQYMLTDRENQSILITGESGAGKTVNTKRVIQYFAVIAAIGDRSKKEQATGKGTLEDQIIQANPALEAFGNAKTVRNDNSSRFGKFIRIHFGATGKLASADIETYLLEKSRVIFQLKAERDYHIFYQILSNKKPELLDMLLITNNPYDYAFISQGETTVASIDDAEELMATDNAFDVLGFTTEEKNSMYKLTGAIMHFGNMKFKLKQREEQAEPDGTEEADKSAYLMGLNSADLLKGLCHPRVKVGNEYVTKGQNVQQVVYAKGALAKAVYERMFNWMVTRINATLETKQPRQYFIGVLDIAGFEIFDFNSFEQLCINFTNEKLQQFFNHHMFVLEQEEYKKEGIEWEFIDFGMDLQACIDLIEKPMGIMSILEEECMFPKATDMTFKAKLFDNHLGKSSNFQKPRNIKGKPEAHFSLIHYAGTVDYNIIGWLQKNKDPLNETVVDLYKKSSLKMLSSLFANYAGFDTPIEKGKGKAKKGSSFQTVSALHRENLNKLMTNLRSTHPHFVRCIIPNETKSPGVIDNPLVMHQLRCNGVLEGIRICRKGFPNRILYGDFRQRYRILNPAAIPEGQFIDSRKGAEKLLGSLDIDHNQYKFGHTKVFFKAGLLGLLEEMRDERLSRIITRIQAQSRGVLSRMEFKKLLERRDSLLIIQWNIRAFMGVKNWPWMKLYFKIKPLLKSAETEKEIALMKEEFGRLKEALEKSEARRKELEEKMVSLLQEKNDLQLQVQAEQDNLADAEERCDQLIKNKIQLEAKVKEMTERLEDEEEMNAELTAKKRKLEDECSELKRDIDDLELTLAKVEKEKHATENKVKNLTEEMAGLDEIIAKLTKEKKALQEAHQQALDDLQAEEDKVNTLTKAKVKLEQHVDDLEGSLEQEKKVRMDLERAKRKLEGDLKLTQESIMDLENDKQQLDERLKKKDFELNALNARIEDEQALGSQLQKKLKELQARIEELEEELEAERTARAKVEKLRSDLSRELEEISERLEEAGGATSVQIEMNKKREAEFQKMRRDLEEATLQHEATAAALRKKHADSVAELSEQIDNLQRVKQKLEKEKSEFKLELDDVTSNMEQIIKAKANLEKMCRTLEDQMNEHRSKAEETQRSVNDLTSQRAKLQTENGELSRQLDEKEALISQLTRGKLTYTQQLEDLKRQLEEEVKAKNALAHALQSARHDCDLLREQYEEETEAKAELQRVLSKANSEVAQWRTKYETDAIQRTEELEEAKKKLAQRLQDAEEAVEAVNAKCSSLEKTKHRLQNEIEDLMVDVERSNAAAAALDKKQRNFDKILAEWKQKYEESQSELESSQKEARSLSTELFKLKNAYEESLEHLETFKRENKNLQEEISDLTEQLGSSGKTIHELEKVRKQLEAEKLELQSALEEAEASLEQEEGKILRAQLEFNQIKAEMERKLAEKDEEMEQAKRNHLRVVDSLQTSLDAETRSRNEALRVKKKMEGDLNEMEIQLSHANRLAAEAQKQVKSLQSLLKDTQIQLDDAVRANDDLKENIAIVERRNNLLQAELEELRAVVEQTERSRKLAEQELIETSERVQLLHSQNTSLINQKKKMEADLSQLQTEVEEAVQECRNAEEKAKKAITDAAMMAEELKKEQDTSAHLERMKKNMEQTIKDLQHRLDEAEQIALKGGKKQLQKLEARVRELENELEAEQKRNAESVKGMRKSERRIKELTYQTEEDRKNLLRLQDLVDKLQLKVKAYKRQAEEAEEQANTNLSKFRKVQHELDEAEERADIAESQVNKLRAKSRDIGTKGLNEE
Chain of bovine cardiac myofibrils (full-length cardiac myosin ATPase in the native sarcomere) (P85100 whole entry partner): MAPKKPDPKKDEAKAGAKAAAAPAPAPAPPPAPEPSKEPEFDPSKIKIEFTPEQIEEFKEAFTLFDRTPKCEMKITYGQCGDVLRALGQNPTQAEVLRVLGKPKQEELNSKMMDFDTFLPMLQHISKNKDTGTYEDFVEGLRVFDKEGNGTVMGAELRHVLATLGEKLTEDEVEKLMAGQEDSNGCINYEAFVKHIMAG
Chain of bovine cardiac myofibrils (full-length cardiac myosin ATPase in the native sarcomere) (Q3SZE5 whole entry partner): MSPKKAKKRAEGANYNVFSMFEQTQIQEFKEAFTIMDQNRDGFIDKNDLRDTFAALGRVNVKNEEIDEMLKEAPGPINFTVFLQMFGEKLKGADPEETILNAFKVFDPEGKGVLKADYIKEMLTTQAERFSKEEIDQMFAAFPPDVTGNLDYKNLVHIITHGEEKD

| SMILES | IC50 [1] | inhibition in vivo at 6 mg/kg [2, 5] | IC50 [2] | inhibition in vivo at 6 mg/kg [2, 6] | IC10 [2] | CDMF75 IC15 [3] | IC50 [3] | inhibition at 10 µM [4] | inhibition in vivo at 10 mg/kg [2, 5] | inhibition in vivo at 10 mg/kg [2, 6] | inhibition at 5 µM ([4]; 5 μM compound) | inhibition in vivo at 2 mg/kg [2, 5] | inhibition in vivo at 2 mg/kg [2, 6] | inhibition in vivo at 4.5 mg/kg [2, 5] | inhibition in vivo at 4.5 mg/kg [2, 6] |
| --- | --- | --- | --- | --- | --- | --- | --- | --- | --- | --- | --- | --- | --- | --- | --- |
| CCc1nc(-c2ccc3c(c2)CC[C@H]3NC(=O)c2ccnc(C)c2)no1 [Compound 387, (R)-N-(5-(5-ethyl-1,2,4-oxadiazol-3-yl)-2,3-dihydro-1H-inden-1-yl)-2-methylisonicotinamide] | 2400 ± 80 nM | 59 ± 24% | 1600 nM | 50 ± 18% | 400 nM | 500 nM | 1300 nM |  |  |  |  |  |  |  |  |
| Cn1nnc(C(=O)N[C@@H]2CCc3cc(-c4noc(C(F)F)n4)ccc32)n1 [Compound 82, (R)-N-(5-(5-(difluoromethyl)-1,2,4-oxadiazol-3-yl)-2,3-dihydro-1H-inden-1-yl)-2-methyl-2H-tetrazole-5-carboxamide] |  |  | 4900 nM |  | 1500 nM | 500 nM | 2000 nM | 89.6% | 65 ± 6% | 55 ± 8% |  |  |  |  |  |
| Cc1cnoc1C(=O)N[C@@H]1CCc2cc(-c3noc(C(C)C)n3)ccc21 [Compound 116, (R)-N-(5-(5-isopropyl-1,2,4-oxadiazol-3-yl)-2,3-dihydro-1H-inden-1-yl)-4-methylisoxazole-5-carboxamide] |  |  |  |  |  | 300 nM | 1500 nM | 72.5% |  |  |  |  |  |  |  |
| CCc1nc(-c2ccc3c(c2)CC[C@H]3NC(=O)c2cnn(C)c2)no1 [Compound 184, (R)—N-(5-(5-ethyl-1,2,4-oxadiazol-3-yl)-2,3-dihydro-1H-inden-1-yl)-1-methyl-1H-pyrazole-4-carboxamide] | 7200 ± 200 nM |  | 7900 nM |  | 800 nM |  |  |  |  |  | 67.4% | 43 ± 9% | 31 ± 9% |  |  |
| CCc1nc(-c2ccc3c(c2)CC[C@H]3NC(=O)c2cnn(CCO)c2)no1 [Compound 474, (R)—N-(5-(5-ethyl-1,2,4-oxadiazol-3-yl)-2,3-dihydro-1H-inden-1-yl)-1-(2-hydroxyethyl)-1H-pyrazole-4-carboxamide] |  | 64 ± 8% | 1400 nM | 27 ± 6% | 200 nM | 600 nM | 2200 nM | 75.2% |  |  |  |  |  |  |  |
| Cn1nccc1C(=O)N[C@@H]1COc2cc(-c3noc(C(F)F)n3)ccc21 [Compound 124, (S)—N-(6-(5-(difluoromethyl)-1,2,4-oxadiazol-3-yl)-2,3-dihydrobenzofuran-3-yl)-1-methyl-1H-pyrazole-5-carboxamide] | 700 ± 20 nM |  |  |  |  | 300 nM | 900 nM | 84.6% |  |  |  |  |  |  |  |
| CCc1nc(-c2ccc3c(c2)CC[C@H]3NC(=O)c2nnn(C)n2)no1 [Compound 183, (R)—N-(5-(5-ethyl-1,2,4-oxadiazol-3-yl)-2,3-dihydro-1H-inden-1-yl)-2-methyl-2H-tetrazole-5-carboxamide] | 1200 ± 20 nM |  | 900 nM |  | 200 nM | 300 nM | 900 nM |  |  |  |  | 42 ± 16% | 15 ± 13% |  |  |
| Cc1cc(C(=O)N[C@@H]2CCc3cc(-c4noc(C)n4)ccc32)ccn1 [Compound 31, (R)-2-methyl-N-(5-(5-methyl-1,2,4-oxadiazol-3-yl)-2,3-dihydro-1H-inden-1-yl)isonicotinamide] |  |  |  |  |  | 1000 nM | 3600 nM | 23.3 ± 18.9% |  |  |  |  |  |  |  |
| Cc1cc(C(=O)NC2CCc3cc(-c4noc(C(F)F)n4)ccc32)ccn1 (centres unmarked) [Compound 5, N-(5-(5-(difluoromethyl)-1,2,4-oxadiazol-3-yl)-2,3-dihydro-1H-inden-1-yl)-2-methylisonicotinamide] |  |  |  |  |  | 1140 nM | 5100 nM | 73.2 ± 7.1% |  |  |  |  |  |  |  |
| CCc1cc(-c2ccc3c(c2)CC[C@H]3NC(=O)c2nnn(C)n2)no1 [Compound 253, (R)—N-(5-(5-ethylisoxazol-3-yl)-2,3-dihydro-1H-inden-1-yl)-2-methyl-2H-tetrazole-5-carboxamide] | 1700 ± 80 nM | 56 ± 9% | 1300 nM | 33 ± 7% | 300 nM | 300 nM | 800 nM |  |  |  |  |  |  |  |  |
| CCc1nc(-c2ccc3c(c2)CC[C@H]3NC(=O)c2cnn(C[C@@H](C)O)c2)no1 [Compound 542, N-[(1R)-5-(5-ethyl-1,2,4-oxadiazol-3-yl)-2,3-dihydro-1H-inden-1-yl]-1-[(2R)-2-hydroxypropyl]-1H-pyrazole-4-carboxamide] |  |  | 3500 nM |  | 900 nM | 900 nM | 3500 nM | 68.4% |  |  |  |  |  | 71 ± 1% | 54 ± 7% |
| CCc1nc(-c2ccc3c(c2)OC[C@H]3NC(=O)c2cnn(C)c2)no1 [Compound 238, (S)—N-(6-(5-ethyl-1,2,4-oxadiazol-3-yl)-2,3-dihydrobenzofuran-3-yl)-1-methyl-1H-pyrazole-4-carboxamide] | 5700 ± 310 nM |  | 4900 nM |  | 900 nM | 300 nM | 1000 nM |  |  |  |  | 52 ± 10% | 59 ± 6% |  |  |
